Columns and labels:
Format in all cases: in vivo
[1] = test system: Echinochloa crus-galli; assay: Post-emergence herbicidal activity, glasshouse pot test; parameters: key: 0 = no damage to plant, 5 = total damage to plant; settings: Application post-emergence, rate 1000 g/ha, evaluated after 13 days
Outline: (§1)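 Pot-grown seedlings, sown in standard soil, were sprayed 8 days after sowing and kept in a controlled glasshouse (24/16 °C, 14 h photoperiod, 65% humidity). Injury was assessed visually 13 days later on a scale where 5 means total damage.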

[2] = test system: Abutilon theophrasti; assay: as above; parameters: key: 0 = no damage to plant, 5 = total damage to plant; settings: Application post-emergence, rate 1000 g/ha, evaluated after 13 days
Outline: as §1

[3] = test system: Amaranthus retroflexus; assay: as above; parameters: key: 0 = no damage to plant, 5 = total damage to plant; settings: Application post-emergence, rate 1000 g/ha, evaluated after 13 days
Outline: as §1

[4] = test system: Alopecurus myosuroides; assay: as above; parameters: key: 0 = no damage to plant, 5 = total damage to plant; settings: Application post-emergence, rate 1000 g/ha, evaluated after 13 days
Outline: as §1

[5] = test system: zea mays; assay: as above; parameters: key: 0 = no damage to plant, 5 = total damage to plant; settings: Application post-emergence, rate 1000 g/ha, evaluated after 13 days
Outline: as §1

[6] = test system: Setaria faberi; assay: as above; parameters: key: 0 = no damage to plant, 5 = total damage to plant; settings: Application post-emergence, rate 1000 g/ha, evaluated after 13 days
Outline: as §1

[7] = test system: Echinochloa crus-galli; assay: Pre-emergence herbicidal activity, glasshouse pot test; settings: pre-emergence spray, rate 1000 g/ha, evaluated after 13 days, scale 0-5
Outline: (§2)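 Glasshouse conditions were 24/16 °C day/night with 14 h light and 65% humidity throughout. Soil was sprayed before emergence, one day after sowing, using an acetone/water (50:50) formulation with 0.5% Tween 20; injury was scored 0–5 after 13 days.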

[8] = test system: Abutilon theophrasti; assay: as above; settings: pre-emergence spray, rate 1000 g/ha, evaluated after 13 days, scale 0-5
Outline: as §2

[9] = test system: Amaranthus retroflexus; assay: as above; settings: pre-emergence spray, rate 1000 g/ha, evaluated after 13 days, scale 0-5
Outline: as §2

[10] = test system: Alopecurus myosuroides; assay: as above; settings: pre-emergence spray, rate 1000 g/ha, evaluated after 13 days, scale 0-5
Outline: as §2

[11] = test system: zea mays; assay: as above; settings: pre-emergence spray, rate 1000 g/ha, evaluated after 13 days, scale 0-5
Outline: as §2

[12] = test system: Setaria faberi; assay: as above; settings: pre-emergence spray, rate 1000 g/ha, evaluated after 13 days, scale 0-5
Outline: as §2

Row | Structure (SMILES) | ECHCG herbicidal damage score [1] | ABUTH herbicidal damage score [2] | AMARE herbicidal damage score [3] | ALOMY herbicidal damage score [4] | ZEAMX herbicidal damage score [5] | SETFA herbicidal damage score [6] | ECHCG damage score, application pre-emergence [7] | ABUTH damage score, application pre-emergence [8] | AMARE damage score, application pre-emergence [9] | ALOMY damage score, application pre-emergence [10] | ZEAMX damage score, application pre-emergence [11] | SETFA damage score, application pre-emergence [12]
1 | COc1nnc(N2C(=O)C(Cl)=C(C)C2O)cc1C (stereo not drawn) [BF6] | 5 | 5 | 5 | 5 | 4 | 5 | 5 | 4 | 5 | 3 | 2 | 3
2 | CC1=C(Cl)C(=O)N(c2ccc(C(F)(F)F)nn2)C1O (stereo not drawn) [BF7] | 3 | 2 | 2 | 2 | 2 | 4 | 3 | 4 | 4 | 2 | 1 | 4
3 | COc1ccc(N2C(=O)C(Cl)=C(C)C2O)nn1 (stereo not drawn) [BF8] | 5 | 5 | 5 | 4 | 1 | 5 | 4 | 5 | 1 | 2 | 0 | 3
4 | CC1=C(Cl)C(=O)N(c2cc(C(C)C)c(Cl)nn2)C1O (stereo not drawn) [BF10] | 5 | 5 | 5 | 5 | 3 | 5 | 5 | 4 | 3 | 4 | 2 | 5
5 | CC1=C(Cl)C(=O)N(c2cc(C(C)(C)F)c(Cl)nn2)C1O (stereo not drawn) [BF11] | 3 | 2 | 2 | 2 | 1 | 3 | 0 | 0 | 0 | 0 | 0 | 0
6 | CC1=C(Cl)C(=O)N(c2cc(C(C)(F)F)c(Cl)nn2)C1O (stereo not drawn) [BF12] | 5 | 4 | 5 | 4 | 3 | 5 | 4 | 3 | 5 | 3 | 2 | 4
7 | CCc1cc(N2C(=O)C(Cl)=C(C)C2O)nnc1Cl (stereo not drawn) [BF13] | 5 | 3 | 3 | 4 | 1 | 5 | 4 | 2 | 4 | 2 | 1 | 5
8 | CC1=C(Cl)C(=O)N(c2ccc(C#N)nn2)C1O (stereo not drawn) [BF14] | 2 | 1 | 2 | 2 | 1 | 3 | 2 | 5 | 4 | 1 | 0 | 0
9 | COC1=C(C)C(O)N(c2cc(C)c(OC)nn2)C1=O (stereo not drawn) [BG1] | 5 | 5 | 5 | 4 | 4 | 5 | 4 | 2 | 5 | 3 | 1 | 2
10 | COC1=C(C)C(O)N(c2cc(C(C)(C)C)c(Cl)nn2)C1=O (stereo not drawn) [BI1] | 5 | 5 | 5 | 5 | 4 | 5 | 5 | 4 | 3 | 4 | 4 | 5
11 | COC1=C(C)C(O)N(c2cc(C(C)C)c(Cl)nn2)C1=O (stereo not drawn) [BI2] | 5 | 5 | 5 | 5 | 3 | 5 | 5 | 4 | 4 | 4 | 3 | 5
12 | COC1=C(C)C(O)N(c2cc3c(nn2)CCCC3)C1=O (stereo not drawn) [BI3] | 3 | 2 | 3 | 3 | 1 | 5 | 4 | 0 | 2 | 1 | 0 | 0
13 | CCOC(=O)c1ccc(N2C(=O)C(OC)=C(C)C2O)nn1 (stereo not drawn) [BI4] | 0 | 0 | 0 | 0 | 0 | 0 | 0 | 0 | 0 | 0 | 0 | 0
14 | COC1=C(C)C(O)N(c2cc(C)c(C#N)nn2)C1=O (stereo not drawn) [BI5] | 0 | 0 | 0 | 0 | 0 | 0 | 0 | 0 | 0 | 0 | 0 | 0
15 | COC1=C(C)C(O)N(c2ccc(C(=O)NC(C)(C)C)nn2)C1=O (stereo not drawn) [BI6] | 5 | 5 | 5 | 4 | 4 | 5 | 4 | 5 | 5 | 4 | 2 | 5
16 | COC1=C(C)C(O)N(c2ccc(C(=O)NC(C)(C)C#N)nn2)C1=O (stereo not drawn) [BI7] | 4 | 4 | 5 | 4 | 2 | 5 | 3 | 4 | 5 | 3 | 1 | 4

From patent US9963445B2, “Chemical compounds” (SYNGENTA PARTICIPATIONS AG, priority 2013, dated 2018)
